Results published in PMC10095864, “Targeting HIV-1 Reverse Transcriptase Using a Fragment-Based Approach” (Molecules, 2023).
Like-named read-outs stand apart in the source and are kept apart here.

Key:
[1] = tested on: NNRTI-binding pocket (NNIBP) of HIV-1 RT; design: method as in PMID 24002095; conditions: cited from earlier work
[2] = biological target: T1, His-tagged HIV-1 RT Y181C (Human immunodeficiency virus type 1 group M subtype B, UniProt P03367, Y780C); test: Surface plasmon resonance, Y181C RT; conditions: ± standard error of dose–response fit, n = 1; NB = no binding observed; read-out: SPR—KD, Y181C
T1 construct: The p66/p51 HIV-1 RT heterodimer engineered with a N-terminal histidine tag; His tag (histidine tag) (N); made in house; host or cells: Escherichia coli strain M15 (vector pRT6H-PR)
Experimental: (§1) Compound binding to recombinant HIV-1 RT was measured by surface plasmon resonance (SPR). SPR is an optical biosensor detection method that involves passing an analyte (often a fragment) in a buffer solution over a gold surface chip with an immobilized protein (RT enzyme) and detecting the change in plasmon resonance angle which is dependent on the refractive index of the medium near the surface. As compounds bind to the target protein, the refractive index changes proportionally to the extent of binding. This can then be used to measure the association and dissociation kinetics of binding as well as the compound’s affinity for binding.
(§2) SPR assays were performed on a Biacore S200 (GE Healthcare). His-tagged RT (WT, K103N, Y181C or K103N/Y181C) was immobilized on the surface of a Biacore compatible NIHC 1500M (Xantec) chip according to manufacturer’s instructions. Following 3 injections 300 s each of 0.5 M EDTA, the chip surface was activated with a 120 s injection of 5 mM NiCl2 followed by a 2100 s injection of 130 nM RT. […] Raw sensorgram data were analyzed using Biacore S200 Evaluation Software. Dose-response determinations were evaluated using a 1:1 binding model. KD values were determined by Biacore S200 Evaluation Software Version 1.0. assuming 1:1 binding. […] Errors were determined as the standard error in the dose-response fit, as calculated by Biacore S200 Evaluation Software.

His-tagged HIV-1 RT WT = biological target: T2, His-tagged HIV-1 RT WT (Human immunodeficiency virus type 1 group M subtype B, UniProt P03367); test: Surface plasmon resonance, WT RT; format: binding
T2 construct: The p66/p51 HIV-1 RT heterodimer engineered with a N-terminal histidine tag; His tag (histidine tag) (N); made in house; host or cells: Escherichia coli strain M15 (vector pRT6H-PR)
Experimental: as §1
(§3) SPR assays were performed on a Biacore S200 (GE Healthcare). His-tagged RT (WT, K103N, Y181C or K103N/Y181C) was immobilized on the surface of a Biacore compatible NIHC 1500M (Xantec) chip according to manufacturer’s instructions. Following 3 injections 300 s each of 0.5 M EDTA, the chip surface was activated with a 120 s injection of 5 mM NiCl2 followed by a 2100 s injection of 130 nM RT. The final immobilization level of RT was typically 14,000–27,000 RU. SPR experiments were carried out at 25 °C using a flow rate of 50 µL/min in running buffer. The running buffer was 1.053 × (HBS pH 7.4 + 50 µM EDTA + 0.005% Tween-20). Compounds were provided as 200 mM stocks and diluted in running buffer to obtain the concentrations required for dose-response studies (0, 6.25, 12.5, 25, 50, 100 and 200 µM). Raw sensorgram data were analyzed using Biacore S200 Evaluation Software. Dose-response determinations were evaluated using a 1:1 binding model. KD values were determined by Biacore S200 Evaluation Software Version 1.0. assuming 1:1 binding. For compounds approaching saturation, Rmax was floated. For compounds with insufficient curvature, Rmax was fixed based on a control. Errors were determined as the standard error in the dose-response fit, as calculated by Biacore S200 Evaluation Software.

recombinant WT HIV-1 RT = biological target: T3, recombinant WT HIV-1 RT (Human immunodeficiency virus type 1 group M subtype B, UniProt P03367); test: biochemical; conditions: for IC50: RT Inhibition—IC50 ± SEM, WT, WT RT DDDP activity, PicoGreen or 33P radiolabeled assay, value not marked as PicoGreen, n ≥ 2; for Ligand efficiency (LE): binding to WT RT, LE = −1.4(logIC50)/N
T3 construct: The p66/p51 HIV-1 RT heterodimer engineered with a N-terminal histidine tag; His tag (histidine tag) (N); made in house; host or cells: Escherichia coli strain M15 (vector pRT6H-PR)
Experimental: (§4) The inhibitory activity of all compounds was evaluated in vitro in assays that measure the DNA-dependent DNA polymerase (DDDP) activity of HIV-1 RT. Compounds were tested against recombinant WT and drug-resistant HIV-1 RT mutants (K103N, Y181C or K103N/Y181C). […] The IC50 value of nevirapine was determined in parallel to control for the performance of the assay. […] These RT mutations either reduce the rate of entry of NNRTIs to the binding pocket (K103N) or remove aromatic interactions that favor binding (Y181C). Initially, compound IC50 values were determined in an assay that quantifies DDDP activity mediated by HIV-1 RT using a radiolabeled ^33PdTTP substrate and more recently using a nonradioactive PicoGreen-based spectrophotometric assay.
(§5) Recombinant HIV-1 RT: The p66/p51 HIV-1 RT heterodimer engineered with a N-terminal histidine tag was expressed from the pRT6H-PR vector (provided by Nicolas Sluis-Cremer) which is based on pRT6H-PROT [37], except that the RT coding region is derived from the infectious molecular clone xxLAI [38]. This xxLAI clone contains the HIV-1LAI backbone and is engineered with silent mutations introducing Xma I and Xba I sites in the RT coding region at nucleotide positions 40–45 and 1470 to 1475, respectively. pRT6H-PR expressing the NNRTI drug-resistant mutations K103N, Y181C and K103N/Y181C were generated by subcloning Xma I/Xba I fragments in xxLAI harboring the desired NNRTI mutations (Giacobbi NS and Sluis-Cremer 2017 AAC) into the corresponding restriction sites in the RT coding region of p6HRT-PR. RT was expressed in Escherichia coli strain M15 and purified using Ni-NTA chromatography as previously described. RT concentrations were determined spectrophotometrically at 280 nm using an extinction coefficient (e280) of 260, 450 M^−1 cm^−1.
(§6) Nevirapine was included in assays as a positive control for inhibiting RT polymerase activity. The DDDP assay was performed by first adding 25 ng of HIV-1 RT to test compound in 96-well plates followed by initiating RT polymerase activity by adding 200 ng of activated calf thymus (ACT) DNA (Sigma Aldrich), 0.2 µCi ^33P-α-dTTP (Perkin Elmer), 50 mM Tris-HCl pH 7.8 50 mM KCl, […], 50 µM dNTP mix (Bioline), 0.1 mg/mL bovine serum albumin (New England Biolabs), 0.01% IGEPAL (Sigma) and 1 mM dithiothreitol. Reactions contained 2.5% dimethyl sulfoxide (DMSO). Following incubation at 37 °C for 10 min, samples from duplicate wells were applied to Whatman DE81 ion-exchange paper (GE Healthcare); dried membranes were washed in 2X saline-sodium citrate (SSC) buffer; and incorporated counts were quantified using an FLP-2000 phosphorimager (Fujifilm) or Typhoon Trio Phosphorimager (GE Healthcare) as published. Dose–response curves were generated using PRISM GraphPad version 8 by plotting the log transformed drug concentrations against percentage inhibition of DDDP activity compared to the no drug control using non-linear regression analysis.
(§7) Non-radioactive DDDP Assay: DDDP assays were also performed using a PicoGreen based spectrophotometric assay to detect double-stranded DNA synthesized by recombinant HIV-1 RT [15]. Assays were performed as described for the […] DDDP assay except that instead of ACT, the reaction contained 40 nM of a template/primer comprising a 200 nt DNA template (5′-[…] […]-3′) annealed to a 18 nucleotide DNA primer (5′-[…]-3′), 50 mM Tris-HCl pH 7.8, 50 mM KCl, 10 mM MgCl2 and 50 µM dNTP mix.

[3] = biological target: T4, His-tagged HIV-1 RT K103N (Human immunodeficiency virus type 1 group M subtype B, UniProt P03367, K702N); test: Surface plasmon resonance, K103N RT; conditions: ± standard error of dose–response fit, n = 1; NB = no binding observed; read-out: SPR—KD, K103N
T4 construct: The p66/p51 HIV-1 RT heterodimer engineered with a N-terminal histidine tag; His tag (histidine tag) (N); made in house; host or cells: Escherichia coli strain M15 (vector pRT6H-PR)
Experimental: as §1, §3

[4] = tested on: HIV-1 RT K103N/Y181C mutant; test: DDDP activity assay, K103N/Y181C RT mutant; format: biochemical; conditions: nonsignificant
Experimental: as §4, §5, §6, §7

[5] = biological target: T5, HIV-1 RT K103N/Y181C mutant (Human immunodeficiency virus type 1 group M subtype B, UniProt P03367, K702N/Y780C); test: DDDP activity assay, K103N/Y181C RT mutant; format: biochemical
T5 construct: The p66/p51 HIV-1 RT heterodimer engineered with a N-terminal histidine tag; His tag (histidine tag) (N); made in house; host or cells: Escherichia coli strain M15 (vector pRT6H-PR)
Experimental: as §4, §5, §6, §7

[6] = biological target: T6, His-tagged HIV-1 RT K103N/Y181C (Human immunodeficiency virus type 1 group M subtype B, UniProt P03367, K702N/Y780C); test: Surface plasmon resonance, K103N/Y181C RT; format: binding
T6 construct: The p66/p51 HIV-1 RT heterodimer engineered with a N-terminal histidine tag; His tag (histidine tag) (N); made in house; host or cells: Escherichia coli strain M15 (vector pRT6H-PR)
Experimental: as §1, §2

[7] = tested on: His-tagged HIV-1 RT K103N/Y181C; test: Surface plasmon resonance, K103N/Y181C RT; format: binding; conditions: SPR
Experimental: as §1, §2

[8] = tested on: HIV-1 RT (WT RT construct RT35A); conditions: assay detects inhibition of both DNA polymerase and RNase H activity; read-out: IC50 (Bauman et al.); cited from earlier work
HIV-1 RT Y181C mutant = biological target: T7, HIV-1 RT Y181C mutant (Human immunodeficiency virus type 1 group M subtype B, UniProt P03367, Y780C); test: DDDP activity assay, Y181C RT mutant; format: biochemical; conditions: PicoGreen or 33P radiolabeled assay, n ≥ 2, read-out: RT Inhibition—IC50 ± SEM, Y181C
T7 construct: The p66/p51 HIV-1 RT heterodimer engineered with a N-terminal histidine tag; His tag (histidine tag) (N); made in house; host or cells: Escherichia coli strain M15 (vector pRT6H-PR)
Experimental: as §4
(§8) Recombinant HIV-1 RT: The p66/p51 HIV-1 RT heterodimer engineered with a N-terminal histidine tag was expressed from the pRT6H-PR vector (provided by Nicolas Sluis-Cremer) which is based on pRT6H-PROT [37], except that the RT coding region is derived from the infectious molecular clone xxLAI [38]. […] RT concentrations were determined spectrophotometrically at 280 nm using an extinction coefficient (e280) of 260, 450 M^−1 cm^−1.
Nevirapine was included in assays as a positive control for inhibiting RT polymerase activity. […] Following incubation at 37 °C for 10 min, samples from duplicate wells were applied to Whatman DE81 ion-exchange paper (GE Healthcare); dried membranes were washed in 2X saline-sodium citrate (SSC) buffer; and incorporated counts were quantified using an FLP-2000 phosphorimager (Fujifilm) or Typhoon Trio Phosphorimager (GE Healthcare) as published. […]

HIV-1 RT K103N mutant = biological target: T8, HIV-1 RT K103N mutant (Human immunodeficiency virus type 1 group M subtype B, UniProt P03367, K702N); test: DDDP activity assay, K103N RT mutant; format: biochemical; conditions: PicoGreen or 33P radiolabeled assay, n ≥ 2, read-out: RT Inhibition—IC50 ± SEM, K103N
T8 construct: The p66/p51 HIV-1 RT heterodimer engineered with a N-terminal histidine tag; His tag (histidine tag) (N); made in house; host or cells: Escherichia coli strain M15 (vector pRT6H-PR)
Experimental: as §4
as §8, with “cm^−1. […]” for “cm^−1.”

Row | Structure (SMILES) | Kd [2] | Kd (His-tagged HIV-1 RT WT) | IC50 (recombinant WT HIV-1 RT) | Kd [3] | IC50 [5] | Ligand efficiency (LE) (recombinant WT HIV-1 RT) | other results
1 | Cc1cc(/C=C/C#N)cc(C)c1Nc1ccnc(Nc2ccc(C#N)cc2)n1 [Rilpivirine, rilpivirine] |  |  |  |  |  |  | affinity for the NNIBP [1]: 0.73 nM
2 | CCOC(=O)c1cnn2ccc(N)cc12 [compound 8, Ethyl 5-Aminopyrazolo[1,5-a]pyridine-3-carboxylate] | 610 ± 32 µM | 522 ± 27 µM | > 1000 µM | 621 ± 36 µM |  |  | 
3 | CCOC(=O)c1cnn2cccc(C#CC3CC3)c12 [compound 27, Ethyl 4-(Cyclopropylethynyl)pyrazolo[1,5-a]pyridine-3-carboxylate] |  | 79 ± 7 µM | 11 ± 1 µM | 187 ± 15 µM | 34 ± 8 µM | 0.37 kcal/mol/HA | fold decrease in susceptibility, K103N/Y181C mutant compared to WT RT [4]: 3.0 fold; fold improvement on parent compound B-1 (recombinant WT HIV-1 RT; IC50 vs B-1 IC50 >1000 μM in the radioactive RT assay): > 20 fold; Kd [6]: 187 ± 15 µM; fold decrease in binding, K103N/Y181C double mutant vs WT [7]: 2–3 fold
4 | CCOC(=O)c1cnn2ccccc12 [compound B-1, ethyl pyrazolo[1,5-a]pyridine-3-carboxylate, reference compound] |  |  |  |  | 208 µM |  | Kd (His-tagged HIV-1 RT WT; read-out: SPR—KD, WT, ± standard error of dose–response fit, n = 1, NB = no binding observed): > 200 µM; IC50 [8]: 350 µM
5 | CCOC(=O)c1cnn2cccc(Br)c12 [compound 6, Ethyl 4-Bromopyrazolo[1,5-a]pyridine-3-carboxylate] | 1190 ± 47 µM | 598 ± 15 µM | 159 ± 29 µM | 1400 ± 45 µM |  | 0.35 kcal/mol/HA | IC50 (HIV-1 RT Y181C mutant): 850 ± 187 µM; IC50 (HIV-1 RT K103N mutant): 846 ± 42 µM
